The text below walks through data of US6352722B1, “Derivatized carbohydrates, compositions comprised thereof and methods of use thereof” (Quadrant Holdings Cambridge Limited, priority 1997, dated 2002).

A short description of the data set: Glass transition temperature (Tg) of derivatized carbohydrates, by DSC. The data set is classed as physicochemical. Particulars: derivatized carbohydrate alone, Tables 1-4. The source says:
The reaction product can be characterized structurally by methods known in the art, including, but not limited to, nuclear magnetic resonance spectroscopy (NMR) and its material science properties characterized by differential scanning calorimetry (DSC). The characteristic melting points and Tgs (glass transition temperatures) for the derivatized carbohydrates can also be determined by DSC and other methods known in the art.
The carbohydrate derivatives were routinely synthesized by standard esterification of the carbohydrate with the chloride of the desired hydrocarbon side chain under anhydrous conditions and the resulting derivatives purified by standard techniques of solvent extraction and re-crystallization. For example, trehalose octa-3,3-dimethylbutyrate was synthesized by reacting 3,3,-dimethylbutyroyl chloride with trehalose in anhydrous pyridine, followed by extraction with ether, hydrochloric acid, potassium carbonate solution and water and finally re-crystallized twice from alcohol to yield colorless, needle-like crystals (˜80% yield) of m.pt 138-140° C., αD 112°. Trehalose hexa-3,3-dimethylbutyrate (THEX) can be prepared by protecting the 6,6′-hydroxy group of trehalose with a bulky group such as trityl or t-butyldiphenylsilyl, for example by heating trehalose and trityl chloride in pyridine. The 6,6′-ditrityltrehalose can be acylated with 3,3-dimethylbutyroyl chloride in pyridine to give 6,6′-ditritylhexa-3,3-dimethylbutyryltrehalose. The trityl group can be removed by strong acid, for example hydrogen bromide in acetic acid, to give THEX. TACT can be prepared by acylating THEX with acetic anhydride in pyridine. Suitable work-up yields the HDC in crystalline form. The physical characteristics, melting points and glass transition temperatures (Tg, ° C.) of selected carbohydrate derivatives are shown in Tables 1-5.

Turning to `CCO[C@@H]1O[C@H](COC(C)=O)[C@@H](O[C@@H]2O[C@H](COC(C)=O)[C@@H](OC(C)=O)[C@H](OC(C)=O)[C@H]2OC(C)=O)[C@H](OC(C)=O)[C@H]1OC(C)=O` [β-Cellobiose ethyl heptaacetate], the “Tg(° C.)” value was 52 °C. In the case of `CC(=O)O[C@@H]1[C@@H](OC(C)=O)[C@@H](O[C@H]2O[C@H](COC(=O)CC(C)(C)C)[C@@H](OC(C)=O)[C@H](OC(C)=O)[C@H]2OC(C)=O)O[C@H](COC(=O)CC(C)(C)C)[C@H]1OC(C)=O` [Trehalose 6,6′-di-(3,3-dimethylbutyrate) hexaacetate], the “Tg(° C.)” value was 50 °C. With `CC(=O)OC1C(COC(=O)C(C)(C)C)OC(OC2OC(COC(=O)C(C)(C)C)C(OC(C)=O)C(OC(C)=O)C2OC(C)=O)C(OC(C)=O)C1OC(C)=O` (centres unmarked) [Trehalose 6,6′ dipivalate hexaacetate], the “Tg(° C.)” value was 56 °C. Under `CCC(=O)OC1C(COC(C)=O)OC(OC2OC(COC(C)=O)C(OC(=O)CC)C(OC(C)=O)C2OC(C)=O)C(OC(C)=O)C1OC(C)=O` (centres unmarked) [Trehalose 4,4′-dipropionate hexaactetate] stands 42 °C; under `CC(C)C(=O)OCC1O[C@H](OCC2O[C@@H](O[C@]3(COC(=O)C(C)C)O[C@H](COC(=O)C(C)C)[C@@H](OC(=O)C(C)C)[C@H]3OC(=O)C(C)C)C(OC(=O)C(C)C)[C@@H](OC(=O)C(C)C)[C@@H]2OC(=O)C(C)C)C(OC(=O)C(C)C)[C@@H](OC(=O)C(C)C)[C@H]1OC(=O)C(C)C` (some centres unmarked) [Raffinose undeca-isobutyrate], 15 °C; under `CC(=O)OC[C@H]1O[C@@H](O[C@H]2[C@H](OC(C)=O)[C@@H](OC(C)=O)[C@H](OC(=O)C(C)C)O[C@@H]2COC(C)=O)[C@H](OC(C)=O)[C@@H](OC(C)=O)[C@H]1OC(C)=O` [β-Lactose isobutyrate heptaacetate], 60 °C. For Trehalose heptapivalate the value was 73 °C; for `CC(=O)OCC1OC(OC2OC(COC(C)=O)C(OC(=O)C(C)C)C(OC(C)=O)C2OC(C)=O)C(OC(C)=O)C(OC(C)=O)C1OC(=O)C(C)C` (centres unmarked) [Trehalose 4,4′-diisobutyrate hexaacetate], 41 °C.

Consider `CCC(=O)OCC1O[C@@H](O[C@H]2OC(COC(=O)CC)[C@@H](OC(=O)CC)[C@H](OC(=O)CC)C2OC(=O)CC)C(OC(=O)CC)C(OC(=O)CC)[C@H]1OC(=O)CC` (some centres unmarked) [Trehalose octapropionate, reference compound], for which the “Tg(° C.)” value came out at 3 °C. For `CCC(=O)OC[C@H]1O[C@@H](O[C@H]2[C@H](OC(=O)CC)[C@@H](OC(=O)CC)[C@H](OC(=O)CC)O[C@@H]2COC(=O)CC)[C@H](OC(=O)CC)[C@@H](OC(=O)CC)[C@@H]1OC(=O)CC` [β-Cellobiose octapropionate, reference compound] the value was 15 °C; for `CCCC(=O)OC[C@H]1O[C@H](O[C@H]2O[C@H](COC(=O)CCC)[C@@H](OC(=O)CCC)[C@H](OC(=O)CCC)[C@H]2OC(=O)CCC)[C@H](OC(=O)CCC)[C@@H](OC(=O)CCC)[C@@H]1OC(=O)CCC` [Trehalose octabutyrate, reference compound], “syrup”; for `CC(=O)OC[C@H]1O[C@@H](O[C@H]2[C@H](OC(C)=O)[C@@H](OC(C)=O)[C@H](OC(C)=O)O[C@@H]2COC(C)=O)[C@H](OC(C)=O)[C@@H](OC(C)=O)[C@H]1OC(C)=O` [β-Lactose octaacetate, reference compound], 63 °C. As for `CCC(CC)C(=O)OC[C@H]1O[C@H](O[C@H]2O[C@H](COC(=O)C(CC)CC)[C@@H](OC(C)=O)[C@H](OC(C)=O)[C@H]2OC(C)=O)[C@H](OC(C)=O)[C@@H](OC(C)=O)[C@@H]1OC(C)=O` [Trehalose 6,6′-di-(2-ethylbutyrate) hexaacetate], the “Tg(° C.)” value worked out at 30 °C. Under `CCCCC(=O)OCC1OC(OC2OC(COC(=O)CCCC)C(OC(=O)CCCC)C(OC(=O)CCCC)C2OC(=O)CCCC)C(OC(=O)CCCC)C(OC(=O)CCCC)C1OC(=O)CCCC` (centres unmarked) [Trehalose octavalerate, reference compound] stands “syrup”.

With Trehalose tetrapivalate, the “Tg(° C.)” value came to 96 °C.

Regarding `CCC(=O)OC[C@H]1O[C@H](O[C@H]2O[C@H](COC(=O)CC)[C@@H](OC(C)=O)[C@H](OC(C)=O)[C@H]2OC(C)=O)[C@H](OC(C)=O)[C@@H](OC(C)=O)[C@@H]1OC(C)=O` [Trehalose 6,6′-dipropionate hexaactetate], the “Tg(° C.)” value turned out to be 43 °C. Under `CO[C@@H]1O[C@H](COC(C)=O)[C@@H](O[C@@H]2O[C@H](COC(C)=O)[C@@H](OC(C)=O)[C@H](OC(C)=O)[C@H]2OC(C)=O)[C@H](OC(C)=O)[C@H]1OC(C)=O` [β-Cellobiose methyl heptaacetate] stands 77 °C; under Trehalose pentapivalate, 81 °C; under `CCC(C)(C)C(=O)OC[C@H]1O[C@H](O[C@H]2O[C@H](COC(=O)C(C)(C)CC)[C@@H](OC(C)=O)[C@H](OC(C)=O)[C@H]2OC(C)=O)[C@H](OC(C)=O)[C@@H](OC(C)=O)[C@@H]1OC(C)=O` [Trehalose 6,6′di-(2,2-dimethylbutyrate) hexaacetate], 47 °C. Under `CC(=O)OC[C@H]1O[C@@H](O[C@H]2[C@H](OC(C)=O)[C@@H](OC(C)=O)[C@@H](OC(C)=O)O[C@@H]2COC(C)=O)[C@H](OC(C)=O)[C@@H](OC(C)=O)[C@H]1OC(C)=O` [α-Lactose octaacetate, reference compound] stands 70 °C; under `CC(C)(C)CC(=O)OC[C@H]1O[C@@H](O[C@H]2[C@H](OC(=O)CC(C)(C)C)[C@@H](OC(=O)CC(C)(C)C)[C@@H](OC(=O)CC(C)(C)C)O[C@@H]2COC(=O)CC(C)(C)C)[C@H](OC(=O)CC(C)(C)C)[C@@H](OC(=O)CC(C)(C)C)[C@H]1OC(=O)CC(C)(C)C` [α-Lactose octa-3,3-dimethyl-butyrate], 53 °C. Under `CC(=O)OC1C(COC(=O)C(C)C)OC(OC2OC(COC(=O)C(C)C)C(OC(C)=O)C(OC(C)=O)C2OC(C)=O)C(OC(C)=O)C1OC(C)=O` (centres unmarked) [Trehalose 6,6′-diisobutyrate hexaacetate] stands 42 °C; under `CC(=O)O[C@@H]1[C@@H](OC(=O)CC(C)(C)C)[C@@H](OC(=O)CC(C)(C)C)O[C@H](COC(=O)CC(C)(C)C)[C@H]1O[C@@H]1O[C@H](COC(=O)CC(C)(C)C)[C@H](OC(=O)CC(C)(C)C)[C@H](OC(=O)CC(C)(C)C)[C@H]1OC(=O)CC(C)(C)C` [α-Lactose 3-acetyl-hepta-3,3-dimethylbutyrate], 48 °C.

On to `CC(C)C(=O)OCC1O[C@@H](O[C@H]2OC(COC(=O)C(C)C)[C@@H](OC(=O)C(C)C)[C@H](OC(=O)C(C)C)C2OC(=O)C(C)C)C(OC(=O)C(C)C)C(OC(=O)C(C)C)[C@H]1OC(=O)C(C)C` (some centres unmarked) [Trehalose octaisobutyrate], for which the “Tg(° C.)” value was 7 °C. Under `CC(C)(C)C(=O)OC[C@H]1O[C@@H](O[C@H]2[C@H](OC(=O)C(C)(C)C)[C@@H](OC(=O)C(C)(C)C)[C@H](OC(=O)C(C)(C)C)O[C@@H]2COC(=O)C(C)(C)C)[C@H](OC(=O)C(C)(C)C)[C@@H](OC(=O)C(C)(C)C)[C@H]1OC(=O)C(C)(C)C` [β-Lactose octapivalate] stands 88 °C; under `CC(=O)OC[C@H]1O[C@@H](O[C@H]2[C@H](OC(C)=O)[C@@H](OC(C)=O)C(OC(C)=O)O[C@@H]2COC(C)=O)[C@H](OC(C)=O)[C@@H](OC(C)=O)[C@H]1OC(C)=O` (stereo partly drawn) [α, β-Lactose octaacetate, reference compound], 67 °C.
